According to US20250049747A1, “USE OF HYPERPOLARIZING AGENTS ALONE AND IN COMBINATION WITH OTHER THERAPEUTIC AGENTS FOR TREATING CANCERS INCLUDING GLIOBLASTOMA” (Trustees of Tufts College, priority 2021, published 2025):
Entries after “also recorded” stand apart in the source; their conditions may differ.

Legend:
[1] = tested on: human glioblastoma U87 cells; assay: Growth and FUCCI assays in U87 cells (cell counts, cell cycle, recovery test); type: cell-based; conditions: for FUCCI cell cycle proportion: U87, day 6
Description: U87 (ATCC) cells were cultured under the same conditions as the NG108-15 cells minus the HAT supplement and used at passage 7-10 for experiments.

NG108-15 cells [2] = assay: Growth and FUCCI assays in NG108-15 cells (cell counts, cell cycle, recovery test); conditions: for cell proliferation compared to control (words): NG108-15, 6 days of treatment
Description: Cells were plated in 96 well plates at a low confluence and drugs were added fresh every other day for 6 days. Some studies removed the drug at 6 days and added media with no drug for an additional 4 days to test for proliferation. Images of the cells were taken every day and a cell profiler pipeline was used to count the cells and determine the ratio of cells in each part of the cell cycle. […] Cell Culture. […] Cells were disassociated with Accutase and passaged when 70% confluent and maintained at 37° C. with 5% C02. Media was changed every two days. […] All drug screens including controls were done using 0.02% DMSO in the high serum Fluorobrite DMEM.
Growth and FUCCI assays. Both cell lines were plated at 5,000 cells per mL into black-walled flat-bottom 96-well plates coated with 1/50 dilution of Matrigel. Images of cells were taken on Day 0 and every subsequent day for 10 days using a Zeiss Axio1 fitted with an on-stage incubator and kept at 37° C. with 5% C02. A 5× objective was used along with filters for YFP, RFP, and CFP and careful calibration of each plate was done to ensure that the same fields of view were imaged each day. Drugs were added after the initial images were taken and then changed every two days until day 6. For recovery experiments, after imaging on day 6, all drugs were removed, and cells were put into imaging media without any added drugs. This media was changed every two days until day 10. Analysis of growth and snap shots of FUCCI reporters over the 6 days or 10 days was done using a CellProfiler [72]pipeline designed by the Broad. The fractional difference in cell number was calculated by dividing the total number of cells each day by the total number of cells from day 0. The ratio of cells in each cell cycle stage every day was determined by counting all the nuclei of one color and dividing it by the total number of nuclei. Blind quality control was done on all the images to make sure that any fibers or image artifacts were not incorrectly counted by the program.

NG108-15 cells [3] = assay: Automated patch-clamp electrophysiology, resting membrane potential; type: cell-based, mouse/rat; conditions: NG108-15, immediately after application
Description: Electrophysiology. SyncroPatch 384PE platform (Nanion Technologies®) was used to perform the automated patch-clamp experiments. This system provides giga-ohm resistance seals during simultaneous recording in the 384-well plate format. Cells were harvested 48-72 h after seeding 1-2×10^6 cells in T175 culture flasks (Falcon), then cells were rinsed with PBS (5 mL) and treated with 3 mL Accutase ([…] technologies) for 5 min at 37° C., re-suspended in 10 mL of serum-free media and pelleted at 1000 rpm for 3 min at RT. […] The cells were kept until the moment of the experiment in a temperature controlled dedicated reservoir at 10° C. and shaken at 200 rpm as described. The experiments were performed within one hour after the harvesting process. The assays were carried in single-hole chips with resistances between 4-5 MΩ after priming the chip with the following solutions (in mM), physiological extracellular solution (pECS) 10 HEPES, 140 NaCl, 5 Glucose, 4 KCl, 2 CaCl2), 1 MgCl2, 295-305 mOsm pH 7.4 (NaOH). Internal recording solution (in mM) 20 EGTA, 50 KCl, 10 NaCl, 60 KF, 10 HEPES at pH 7.2, and 285 mOsm. 15 μL of the cell suspension (50% v/v pECS/Medium no serum) was added to each well to a final density of 50-80K cells/mL. Cell capture was promoted by holding a negative pressure of −100 mbar for 20 s. After successive hyperpolarization steps from −30 mV to −100 mV enhanced the capture the seal followed by the transient addition of a high Ca2+ extracellular solution (80 mM NaCl, 3 mM KCl, 35 mM CaCl2), 10 mM MgCl2, 10 mM HEPES at pH 7.4 and 298 mOsm. High Ca2+ solution is washed out by successive external exchanges replacing half of the volume of the well each time with the external recording solution. All recording solutions were prepared with ultrapure MilliQ water (18 MD-cm). After the formation of the Giga-seal, a 250 mbar pressure was applied to break the membrane patch. Once in whole-cell configuration, different voltage protocols were applied to dissect different conductances in NG108-15 cells. Signals were recorded in the current-clamp mode “I=0” (passive conditions) where no current was injected, to monitor the membrane potential. The membrane potentials were recorded for seven sweeps of 1 sec, with an inter-sweep time of 10 s. The average membrane potentials of the 7 sweeps were reported.
Electrophysiology of NG108-15 Cells Show Changes in Resting Membrane Potential Induced by Treatment. […] Untreated cells were patched, baseline measurements were taken and then the drugs were added and the changes in the cell Vmem were recorded.

NG108-15 cells [4] = assay: Antibody staining, BrdU and senescence assays in NG108-15 cells; type: cell-based, mouse/rat; conditions: NG108-15, 6 days
Description: Antibody Staining, BrdU and Senescence Assays. NG108-15 cells were plated on PEI and Matrigel coated plates at 15,000 or 30,000 cells/mL, U87 cells at 10,000 cells/mL and grown in imaging media for 6 days with drug treatment. Fresh media was added every 2 days. On day 6, cells were fixed with 4% formaldehyde in PBS for 30 minutes for all antibody staining, except for BrdU which was fixed for 15 minutes, and for the senescence assay which was fixed for 20 min using the Senescence Beta-Galactosidase Staining Kit (9860, CellSignaling) and thereafter stained according to manufacturer's protocol. After fixing, cells were washed twice with PBS, and were permeabilized in PBS with 0.3% Triton-X for 15 min then washed again twice with PBS. The cells for the BrdU assay were additionally treated with 1N HCl for 10 min on ice, followed by a treatment with 2N HCl for 50 min at room temp. Cells were then blocked with standard blocking buffer comprised of TBS containing 10% goat serum, 0.1% BSA, and with 0.05% Tween 20 or without detergent for antibodies against phosphorylated proteins or monoclonal antibodies except for Anti-YAP and Anti-BrdU staining, which were done according to manufacturer's protocol. Primary antibodies were added at the following concentrations: 1:250 anti-S100 beta (GTX129573, Genetex), 1:500 anti-GFAP (AB5804, EMD-Millipore), 1:300 anti-SOX10 (ab155279, Abcam), 1:100 MAP2 (4542, CellSignaling), 1:400 anti-cleaved caspase 3 (9661, CellSignaling), 1:300 anti-Cx43 (STJ2411, St. John's Labratory), 1:800 anti-p27^Kip1 (3698, CellSignaling), 1:150 anti-BrdU (5292, CellSignaling), 1:125 anti-LC3-II (2775, CellSignaling), 8 μg/mL anti-04 (MAB1326, R&D Systems), 1:1000 anti-TH (RPCA-TH, Encor), 1:4000 anti-NSE (RPCA-NSE, Encor), 1:4000 anti-NFM (RPCA-NF-M, Encor), 0.5 μg/mL anti-TujI (801202, Biolegend), 1:400 anti-NF-KB p65 (8242, CellSignaling), 1:125 anti-phospho CREB (05-807, EMD-Millipore), 1:250 anti-vimentin (ab92547, Abcam), 1:125 anti-YAP (14074, CellSignaling). Antibodies were diluted in their respective blocking buffer and incubated overnight at 4° C. The next day, cells were washed with TBS-T or TBS for 3× for 5 min each and secondary antibody was added as follows: 1:1000 donkey anti-mouse 647 (A-31571, Thermo-Fisher) or 1:1000 donkey anti-rabbit 647 (A-31573, Thermo-Fisher). Each were diluted in blocking buffer along with 2.5 μg/mL Hoechst 33342 and incubated for 1 hour at room temperature. Cells were then washed again with TBS-T or TBS for 3× for 5 min each and covered with Gelvatol. Cells were imaged with an EVOS M7000 system, with at least 50% of each well in a 96 well plate imaged and analyzed using a CellProfiler pipeline for measuring integrated intensity, mean intensity, or nuclear to cytoplasmic ratio of mean intensities.

[5] = cited from earlier work
[6] = human, in vivo; cited from earlier work

In the case of Cn1nnc2c(C(N)=O)ncn2c1=O [TMZ, temozolomide], the “cell proliferation compared to control (words)” value ([1]; U87, 6 days) was “significantly effective”, the “percent reduction in cells compared to control” value ([1]; U87, 6 days of treatment) was 43% and the “FUCCI cell cycle proportion” value [1] was “did not show a large change in proportion of cells”. The “recovery of proliferation after treatment removed” value ([1]; U87, drugs removed at day 6, followed to day 10) was “slight increase in proliferation after treatment was removed”, the “cell proliferation compared to control (words)” value (NG108-15 cells [2]) was “not significantly effective at reducing proliferation” and the “cell proliferation compared to control (words)” value (NG108-15 cells [2]; listed as temozolomide) was “not effective”. The “change in resting membrane potential compared to control” value (“change in resting membrane potential” for short) (NG108-15 cells [3]) was “significantly hyperpolarized”.
In the case of Nc1nnc(-c2cccc(Cl)c2Cl)c(N)n1 [Lamotrigine, lamotrigine], the “change in resting membrane potential” value (NG108-15 cells [3]) was “significantly hyperpolarized”.
In the case of CCOC(=O)Nc1ccc(NCc2ccc(F)cc2)cc1N [Retigabine, retigabine], the BrdU incorporation (NG108-15 cells [4]) is given as “significant decrease”, the “cleaved caspase 3 staining” value (NG108-15 cells [4]) is given as “decrease the cleaved caspase 3 positive cells significantly” and the “plasma protein binding affinity” value [5] is given as “about 80%”. For the same compound, the “change in resting membrane potential” value (NG108-15 cells [3]) was “significantly hyperpolarized; also recorded: hyperpolarized NG108-15 cells only slightly”.
For CO[C@H]1C[C@@H]2CC[C@@H](C)[C@@](O)(O2)C(=O)C(=O)N2CCCC[C@H]2C(=O)O[C@H]([C@H](C)C[C@@H]2CC[C@@H](O)[C@H](OC)C2)CC(=O)[C@H](C)/C=C(\C)[C@@H](O)[C@@H](OC)C(=O)[C@H](C)C[C@H](C)/C=C/C=C/C=C/1C [Rapamycin, rapamycin], the LC3-II stain (NG108-15 cells [4]) is given as “significant increase”, the “FUCCI cell cycle proportion” value [1] is given as “increase in the G1 proportion” and the “blood-brain barrier penetrance” value [6] is given as “cross the blood brain barrier effectively”. For the same compound, the “cell proliferation compared to control (words)” value (NG108-15 cells [2]) was “very significant decrease in proliferation”, the “FUCCI cell cycle proportion” value (NG108-15 cells [2]; NG108-15, day 6) was “increase in cells arrested at G1; also recorded: increased the proportion of cells in G1” and the “change in resting membrane potential” value (NG108-15 cells [3]) was “significantly hyperpolarized”.
